77 sequences from the supplement of paper PMC11208160 can be followed below.

This data set can be described thus: recombinant barcode read abundance after kanamycin selection (control-corrected) (log10(CPM+1)); higher = more efficient recombination; sequences stand for … in AGTGCAGAGAAAATCGGCCAGTTTTCTCTGCCTGCAGTCCGCATGCCGT…AGATTTATGCAGCGGACTGCCTTTCTCCCAAAGTGATAAACCGGACAGTATCATGGACCGGTTTTCCCGGTAATCCGTATTTGCAAGGTTGGTTTCACT; site = the 11-nt target. The procedure, abridged: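 Targets were screened in pooled form in E. coli against IS621 bridge RNA target-binding loops. Recombination efficiency is based on barcode counts at recombinant junctions in counts per million, averaged and corrected for the control. Numbers are shown as log10(CPM+1), with duplicate plates on chloramphenicol/ampicillin LB agar (control) or chloramphenicol/ampicillin/kanamycin with 0.1 mM IPTG.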
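Note: IS621 recombinase and bridge RNA in Escherichia coli cells.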

As to “GGGGCCTCTTGGGTTCTAACCTGTTGCAA (site AGGGCCTCTCT)”, the “recombinant barcode read abundance (log10)” value stood at 0.474. Consider “GGGGCCTCTTGGGTTCTAACCTGTTGCAA (site GGGGCCTCTTT)”, for which the “recombinant barcode read abundance (log10)” value was found to be 2.56. For “GGGGCCTCTTGGGTTCTAACCTGTTGCTG (site GGAGCCTCTGA)” the value was 0.0595. With “GGGGCCTCTTGGGTTCTAACCTGTTGCTG (site GGGGCCTCTCA)” the figure was 3.02; with “GGGGCTACTTGGGTTCTAACCTGTTGCAC (site GGGGCTACTAG)”, 0.58; with “GGGGCTACTTGGGTTCTAACCTGTTGCAC (site GGGGCTACTGT)”, 2.62. With “GGGGCTTCTTGGGTTCTAACCTGTTGCTT (site GGGGCATCTAA)” the figure was 0.129. For the sequence “GGGGCTTCTTGGGTTCTAACCTGTTGCTT (site GGGGCCTCTAA)”, the “recombinant barcode read abundance (log10)” value worked out at 0.762. Take “GGGGCTTCTTGGGTTCTAACCTGTTGCTT (site GGGGCGTCTAA)”: the “recombinant barcode read abundance (log10)” value was determined as 0.343.

Turning to “GGGGCTTCTTGGGTTCTAACCTGTTGCTT (site GGGGCTTCTAA)”, the “recombinant barcode read abundance (log10)” value was 0.913. For “GGGGTAACTTGGGTTCTAACCTGTTGCCT (site GGGACAACTAG)” the value was 0.0486; for “GGGGTAACTTGGGTTCTAACCTGTTGCCT (site GGGGTAACTAG)”, 0.58; for “GGGGTCCCTTGGGTTCTAACCTGTTGCCA (site GAGATCCCTTG)”, 0.247.

Consider “GGGGTCCCTTGGGTTCTAACCTGTTGCCA (site GGGGTCCCTTG)”, for which the “recombinant barcode read abundance (log10)” value was determined as 1.8.

In the case of “GGGTACACTTGGGTTCTAACCTGTTGCTA (site AGGTAGACTTA)”, the “recombinant barcode read abundance (log10)” value was found to be 0.0922. For “GGGTACACTTGGGTTCTAACCTGTTGCTA (site GGGTACACTTA)” the value was 2.12; for “GGGTACCCTTGGGTTCTAACCTGTTGCCT (site GAGTACCCTAG)”, 0.584. Consider “GGGTACCCTTGGGTTCTAACCTGTTGCCT (site GCGTACCCTAG)”, for which the “recombinant barcode read abundance (log10)” value was found to be 0.126. In the case of “GGGTACCCTTGGGTTCTAACCTGTTGCCT (site GGGTACCCTAG)”, the “recombinant barcode read abundance (log10)” value came out at 1.99.

On to “GGGTACCCTTGGGTTCTAACCTGTTGCCT (site GTGTACCCTAG)”, for which the “recombinant barcode read abundance (log10)” value worked out at 0.133.

In the case of “GGGTCGGCTTGGGTTCTAACCTGTTGCGC (site GGGTCGGCTAC)”, the “recombinant barcode read abundance (log10)” value stood at 0.0769. For “GGGTCGGCTTGGGTTCTAACCTGTTGCGC (site GGGTCGGCTCC)” the value was 0.0276; for “GGGTCGGCTTGGGTTCTAACCTGTTGCGC (site GGGTCGGCTGC)”, 1.88; for “GGGTCGGCTTGGGTTCTAACCTGTTGCGC (site GGGTCGGCTTC)”, 0.0981.

In the case of “GGGTCGGCTTGGGTTCTAACCTGTTGCGG (site GGGTCGGCTAC)”, the “recombinant barcode read abundance (log10)” value is 0.147. For the sequence “GGGTCGGCTTGGGTTCTAACCTGTTGCGG (site GGGTCGGCTCC)”, the “recombinant barcode read abundance (log10)” value amounted to 2.44. Consider “GGGTCGGCTTGGGTTCTAACCTGTTGCGG (site GGGTCGGCTGC)”, for which the “recombinant barcode read abundance (log10)” value was determined as 0.0285.

Regarding “GGGTCGGCTTGGGTTCTAACCTGTTGCGG (site GGGTCGGCTTC)”, the “recombinant barcode read abundance (log10)” value is 0.609. With “GGGTCGGCTTGGGTTCTAACCTGTTGCTG (site GGGTCGGCTCA)” the figure was 1.91; with “GGGTCGGCTTGGGTTCTAACCTGTTGCTG (site GTCTCGGCTCA)”, 0.0584.

Take “GGTAAATCTTGGGTTCTAACCTGTTGCCT (site GGTAAATCTAG)”: the “recombinant barcode read abundance (log10)” value turned out to be 0.459. For “GGTAAATCTTGGGTTCTAACCTGTTGCCT (site GGTAAGTCTAG)” the value was 0.359. For the sequence “GGTAACCCTTGGGTTCTAACCTGTTGCGG (site GGTAACCCTCC)”, the “recombinant barcode read abundance (log10)” value was found to be 2.24.

“GGTAACCCTTGGGTTCTAACCTGTTGCGG (site GGTCACCCTCC)”: the “recombinant barcode read abundance (log10)” value was 0.0921. Take “GGTAACCCTTGGGTTCTAACCTGTTGCGG (site GGTGACCCTCC)”: the “recombinant barcode read abundance (log10)” value worked out at 0.106. With “GGTAACCCTTGGGTTCTAACCTGTTGCGG (site GGTTACCCTCC)”, the “recombinant barcode read abundance (log10)” value amounted to 0.425. With “GGTAAGACTTGGGTTCTAACCTGTTGCGG (site GCTAAGACTCA)” the figure was 0.0264; with “GGTAAGACTTGGGTTCTAACCTGTTGCGG (site GGTAAGACTCC)”, 1.64; with “GGTACTCCTTGGGTTCTAACCTGTTGCGT (site GGTACGCCTAC)”, 0.18. With “GGTACTCCTTGGGTTCTAACCTGTTGCGT (site GGTACTCCTAC)” the figure was 0.913; with “GGTAGGACTTGGGTTCTAACCTGTTGCGG (site AGTAGGCCTCC)”, 0.0127; with “GGTAGGACTTGGGTTCTAACCTGTTGCGG (site GGTAGGACTCC)”, 2. With “GGTATAACTTGGGTTCTAACCTGTTGCCA (site ACACCCTCTCT)” the figure was 0.124; with “GGTATAACTTGGGTTCTAACCTGTTGCCA (site GGTATAACTTG)”, 0.132. As to “GGTCCCGCTTGGGTTCTAACCTGTTGCCA (site GGGCCCGCTTA)”, the “recombinant barcode read abundance (log10)” value worked out at 0.485. For “GGTCCCGCTTGGGTTCTAACCTGTTGCCA (site GGTCCCGCTTG)” the value was 1.77; for “GGTCGAGCTTGGGTTCTAACCTGTTGCCT (site GGTCGAGCTAG)”, 1.13; for “GGTCGAGCTTGGGTTCTAACCTGTTGCCT (site GGTCGCGCTAG)”, 0.0193. With “GGTCGAGCTTGGGTTCTAACCTGTTGCCT (site GGTCGGGCTAG)” the figure was 0.146; with “GGTCGAGCTTGGGTTCTAACCTGTTGCCT (site GGTCGTGCTAG)”, 0.671; with “GGTCGTGCTTGGGTTCTAACCTGTTGCCT (site GGTCGAGCTAG)”, 0.304. For the sequence “GGTCGTGCTTGGGTTCTAACCTGTTGCCT (site GGTCGCGCTAG)”, the “recombinant barcode read abundance (log10)” value was 0. With “GGTCGTGCTTGGGTTCTAACCTGTTGCCT (site GGTCGGGCTAG)” the figure was 0.106. With “GGTCGTGCTTGGGTTCTAACCTGTTGCCT (site GGTCGTGCTAG)” the figure was 1.14.

Turning to “GGTCTAACTTGGGTTCTAACCTGTTGCCT (site GGTCAAACTAG)”, the “recombinant barcode read abundance (log10)” value came to 0.0448.

On to “GGTCTAACTTGGGTTCTAACCTGTTGCCT (site GGTCCAACTAG)”, for which the “recombinant barcode read abundance (log10)” value worked out at 0.631. For “GGTCTAACTTGGGTTCTAACCTGTTGCCT (site GGTCGAACTAG)” the value was 0.128; for “GGTCTAACTTGGGTTCTAACCTGTTGCCT (site GGTCTAACTAG)”, 0.649. With “GGTCTGCCTTGGGTTCTAACCTGTTGCCT (site AGTCTGCCTAG)”, the “recombinant barcode read abundance (log10)” value was found to be 0.171.

Turning to “GGTCTGCCTTGGGTTCTAACCTGTTGCCT (site CGTCTGCCTAG)”, the “recombinant barcode read abundance (log10)” value stood at 0.252. On to “GGTCTGCCTTGGGTTCTAACCTGTTGCCT (site GGTCTGCCTAG)”, for which the “recombinant barcode read abundance (log10)” value came out at 0.375. For “GGTCTGCCTTGGGTTCTAACCTGTTGCCT (site TGTCTGCCTAG)” the value was 0.397. For “GGTGAGACTTGGGTTCTAACCTGTTGCCA (site AGTGGGACTTG)” the value was 0.235; for “GGTGAGACTTGGGTTCTAACCTGTTGCCA (site GGTGAGACTTG)”, 2.14. For the sequence “GGTGAGGCTTGGGTTCTAACCTGTTGCAT (site GGTGAGGCTAT)”, the “recombinant barcode read abundance (log10)” value is 2.31. Consider “GGTGAGGCTTGGGTTCTAACCTGTTGCAT (site TAACCTACTTA)”, for which the “recombinant barcode read abundance (log10)” value was 0.214. Regarding “GGTGCATCTTGGGTTCTAACCTGTTGCTT (site ATATGTCCTTT)”, the “recombinant barcode read abundance (log10)” value was determined as 0.0325. For “GGTGCATCTTGGGTTCTAACCTGTTGCTT (site GGTGCATCTAA)” the value was 0.0847; for “GGTGCGTCTTGGGTTCTAACCTGTTGCCT (site AGTGCGTCTAG)”, 0.246. Turning to “GGTGCGTCTTGGGTTCTAACCTGTTGCCT (site CGTGCGTCTAG)”, the “recombinant barcode read abundance (log10)” value came out at 0.132.

On to “GGTGCGTCTTGGGTTCTAACCTGTTGCCT (site GGTGCGTCTAG)”, for which the “recombinant barcode read abundance (log10)” value stood at 1.57. With “GGTGCGTCTTGGGTTCTAACCTGTTGCCT (site TGTGCGTCTAG)” the figure was 0.119; with “GGTGCTCCTTGGGTTCTAACCTGTTGCAC (site GGTGCTCCTAT)”, 0.085. For “GGTGCTCCTTGGGTTCTAACCTGTTGCAC (site GGTGCTCCTCT)” the value was 0.04; for “GGTGCTCCTTGGGTTCTAACCTGTTGCAC (site GGTGCTCCTGT)”, 0.684. With “GGTGCTCCTTGGGTTCTAACCTGTTGCAC (site GGTGCTCCTTT)”, the “recombinant barcode read abundance (log10)” value was determined as 0.216. For the sequence “GGTGGCCCTTGGGTTCTAACCTGTTGCCT (site GATGGCCCTAG)”, the “recombinant barcode read abundance (log10)” value amounted to 0.108.
